Read-outs that look alike come from different tables or passages of the source.
Target: T1, human M4 receptor (Homo sapiens, UniProt P08173)
T1 construct: expressed in transfected cells; host or cells: CHO cells
T1 sequence (P08173 1-479): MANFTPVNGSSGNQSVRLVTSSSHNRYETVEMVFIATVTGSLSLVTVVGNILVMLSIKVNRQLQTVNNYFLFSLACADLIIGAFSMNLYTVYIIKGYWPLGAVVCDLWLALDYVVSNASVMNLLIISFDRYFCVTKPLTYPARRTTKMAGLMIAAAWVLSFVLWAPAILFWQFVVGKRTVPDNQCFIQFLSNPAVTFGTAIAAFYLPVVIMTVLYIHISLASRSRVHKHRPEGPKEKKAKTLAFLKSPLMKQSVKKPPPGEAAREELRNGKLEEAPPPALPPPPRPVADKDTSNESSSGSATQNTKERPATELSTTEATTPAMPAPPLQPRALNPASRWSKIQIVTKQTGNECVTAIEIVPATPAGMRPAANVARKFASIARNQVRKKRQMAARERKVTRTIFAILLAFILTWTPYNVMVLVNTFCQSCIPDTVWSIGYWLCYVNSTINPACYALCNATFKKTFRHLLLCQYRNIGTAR
Assay: Radioligand ([3H]N-methylscopolamine) binding assay, membranes from CHO cells expressing human M4 receptor
Method: Binding affinity (Ki) for the compounds was measured by inhibition of radioligand binding to membranes from CHO cells expressing human M4 receptor. Membranes were prepared by nitrogen cavitation and differential centrifugation as previously described (Hoare et al., Mol. Pharmacol. 2003 March; 63(3): 751-65). The radioligand employed was tritiated N-methylscopolamine, used at a concentration of 1.5 nM. A dose-response of twelve concentrations of compound was used, ranging from […]. The assay buffer was 50 mM HEPES, 100 mM NaCl, 5 mM MgCl2, 1 mM ethylenediaminetetraacetic acid, pH-adjusted to pH 7.4. Membranes, radioligand and compound were incubated together for 90 minutes at 37° C., in a total volume of 150 μL in a 96-well plate. Receptor-bound radioligand was then collected by harvesting the assay over glass fiber filters pretreated with polyethylenimine to trap the cell membranes, using rapid vacuum filtration. Harvesting and radioactivity counting was conducted as previously described (see, e.g., Hoare et al., Mol. Pharmacol. 2003 63(3):751-65); Erratum at Mol. Pharmacol. 2005 July; 68(1): 260).

[1] = Ki against human M4 receptor, membranes from CHO cells, tritiated N-methylscopolamine 1.5 nM, read-out: K

Row | SMILES | Ki [1] [nM] | Ki [nM]
1 | C[C@@H]1CN(c2ncc(F)cn2)C[C@H](C)N1C(=O)OC1CC2(C1)CN(Cc1ccccc1)C2 [Compound 157, 2-benzyl-2-azaspiro[3.3]heptan-6-yl (2R,6S)-4-(5-fluoropyrimidin-2-yl)-2,6-dimethylpiperazine-1-carboxylate] | < 10 | –
2 | C[C@@H]1CN(c2ncc(F)cn2)C[C@@H](C)N1C(=O)OC1CC2(C1)CN(Cc1ccccc1)C2 [Compound 158, 2-benzyl-2-azaspiro[3.3]heptan-6-yl (2R,6R)-4-(5-fluoropyrimidin 2-yl)-2,6-dimethylpiperazine-1-carboxylate] | 100 to 1000 | –
3 | C[C@@H]1CN(c2ncc(C#N)cn2)C[C@@H](C)N1C(=O)OC1CC2(C1)CN(Cc1ccccc1)C2 [Compound 159, 2-benzyl-2-azaspiro[3.3]heptan-6-yl (2R,6R)-4-(5-cyanopyrimidin-2-yl)-2,6-dimethylpiperazine-1-carboxylate] | 100 to 1000 | –
4 | C[C@@H]1CN(c2ccc([N+](=O)[O-])cn2)C[C@H](C)N1C(=O)OC1CC2(C1)CN(Cc1ccccc1)C2 [Compound 163, 2-benzyl-2-azaspiro[3.3]heptan-6-yl (2R,6S)-2,6-dimethyl-4-(5-nitropyridin-2-yl)piperazine-1-carboxylate] | 10 to 100 | –
5 | C[C@@H]1CN(c2ccc([N+](=O)[O-])cn2)C[C@@H](C)N1C(=O)OC1CC2(C1)CN(Cc1ccccc1)C2 [Compound 164, 2-benzyl-2-azaspiro[3.3]heptan-6-yl (2R,6R)-2,6-dimethyl-4-(5-nitropyridin-2-yl)piperazine-1-carboxylate] | 100 to 1000 | –
6 | C[C@@H]1CN(c2cncc(C(F)(F)F)n2)C[C@@H](C)N1C(=O)OC1CC2(C1)CN(Cc1ccccc1)C2 [Compound 166, 2-benzyl-2-azaspiro[3.3]heptan-6-yl (2R,6R)-2,6-dimethyl-4-[6-(trifluoromethyl)pyrazin-2-yl]piperazine-1-carboxylate] | 100 to 1000 | –
7 | O=C(OC1CC2(C1)CN(Cc1ccccc1)C2)N1C2COCC1CN(c1ncc(C(F)(F)F)cn1)C2 [Compound 167, 2-benzyl-2-azaspiro[3.3]heptan-6-yl 7-[5-(trifluoromethyl)pyrimidin-2-yl]-3-oxa-7,9-diazabicyclo[3.3.1]nonane-9-carboxylate] | 10 to 100 | –
8 | O=C(OC1CC2(C1)CN(Cc1ccccc1)C2)N1C2COCC1CN(c1cnc(C(F)(F)F)cn1)C2 [Compound 168, 2-benzyl-2-azaspiro[3.3]heptan-6-yl 7-[5-(trifluoromethyl)pyrazin-2-yl]-3-oxa-7,9-diazabicyclo[3.3.1]nonane-9-carboxylate] | – | 100 to 1000
9 | CSc1nc(N2C[C@@H](C)N(C(=O)OC3CC4(C3)CN(Cc3ccccc3)C4)[C@@H](C)C2)ncc1Br [Compound 169, 2-benzyl-2-azaspiro[3.3]heptan-6-yl (2R,6S)-4-[5-bromo-4-(methylsulfanyl)pyrimidin-2-yl]-2,6-dimethylpiperazine-1-carboxylate] | 10 to 100 | –
10 | CSc1nc(N2C[C@@H](C)N(C(=O)OC3CC4(C3)CN(Cc3ccccc3)C4)[C@H](C)C2)ncc1Br [Compound 170, 2-benzyl-2-azaspiro[3.3]heptan-6-yl (2R,6R)-4-[5-bromo-4-(methylsulfanyl)pyrimidin-2-yl]-2,6-dimethylpiperazine-1-carboxylate] | 10 to 100 | –
11 | COC(=O)c1cnc(N2C[C@@H](C)N(C(=O)OC3CC4(C3)CN(Cc3ccccc3)C4)[C@H](C)C2)nc1C(F)(F)F [Compound 171, methyl 2-[(3R,5R)-4-[({2-benzyl-2-azaspiro[3.3]heptan-6-yl}oxy)carbonyl]-3,5-dimethylpiperazin-1-yl]-4-(trifluoromethyl)pyrimidine-5-carboxylate] | < 10 | –
12 | C[C@@H]1CN(c2cnc3ccccc3n2)C[C@H](C)N1C(=O)OC1CC2(C1)CN(Cc1ccccc1)C2 [Compound 172, 2-benzyl-2-azaspiro[3.3]heptan-6-yl (2R,6S)-2,6-dimethyl-4-(quinoxalin-2-yl)piperazine-1-carboxylate] | 10 to 100 | –
13 | COc1ccc2nc(N3C[C@@H](C)N(C(=O)OC4CC5(C4)CN(Cc4ccccc4)C5)C[C@@H]3C)cnc2c1 [Compound 173, 2-benzyl-2-azaspiro[3.3]heptan-6-yl (2R,5S)-4-(6-methoxyquinoxalin-2-yl)-2,5-dimethylpiperazine-1-carboxylate] | 10 to 100 | –
14 | Cc1nc(C#N)cnc1N1C[C@@H](C)N(C(=O)OC2CC3(C2)CN(Cc2ccccc2)C3)[C@@H](C)C1 [Compound 181, 2-benzyl-2-azaspiro[3.3]heptan-6-yl (2R,6S)-4-(5-cyano-3-methylpyrazin-2-yl)-2,6-dimethylpiperazine-1-carboxylate] | 100 to 1000 | –
15 | C[C@@H]1CN(c2cnc3ccccc3n2)C[C@@H](C)N1C(=O)OC1CC2(C1)CN(Cc1ccccc1)C2 [Compound 185, 2-benzyl-2-azaspiro[3.3]heptan-6-yl (2R,6R)-2,6-dimethyl-4-(quinoxalin-2-yl)piperazine-1-carboxylate] | 100 to 1000 | –
16 | C[C@@H]1CN(c2cnc3ccccc3n2)[C@@H](C)CN1C(=O)OC1CC2(C1)CN(Cc1ccccc1)C2 [Compound 187, 2-benzyl-2-azaspiro[3.3]heptan-6-yl (2R,5S)-2,5-dimethyl-4-(quinoxalin-2-yl)piperazine-1-carboxylate] | < 10 | –
17 | C[C@@H]1CN(c2ncccc2C(F)(F)F)C[C@@H](C)N1C(=O)OC1CC2(C1)CN(Cc1ccccc1)C2 [Compound 190, 2-benzyl-2-azaspiro[3.3]heptan-6-yl (2R,6R)-2,6-dimethyl-4-[3-(trifluoromethyl)pyridin-2-yl)piperazine-1-carboxylate] | 100 to 1000 | –
18 | C[C@@H]1CN(c2ccc(C(F)(F)F)nc2)C[C@H](C)N1C(=O)OC1CC2(C1)CN(Cc1ccccc1)C2 [Compound 191, 2-bnezyl-2-azaspiro[3.3]heptan-6-yl (2R,6S)-2,6-dimethyl-4-[6-(trifluoromethyl)pyridin-3-yl]piperazine-1-carboxylate] | 10 to 100 | –
19 | C[C@@H]1CN(c2cncc(C(F)(F)F)n2)[C@@H](C)CN1C(=O)OC1CC2(C1)CN(Cc1ccccc1)C2 [Compound 194, 2-benzyl-2-azaspiro[3.3]heptan-6-yl (2R,5S)-2,5-dimethyl-4-[6-(trifluoromethyl)pyrazin-2-yl]piperazine-1-carboxylate] | 100 to 1000 | –
20 | COc1ccc2nc(N3C[C@@H](C)N(C(=O)OC4CC5(C4)CN(Cc4ccccc4)C5)C[C@H]3C)cnc2c1 [Compound 201, 2-benzyl-2-azaspiro[3.3]heptan-6-yl (2R,5R)-4-(6-methoxyquinoxalin-2-yl)-2,5-dimethylpiperazine-1-carboxylate] | 100 to 1000 | –
21 | C[C@@H]1CN(c2cnc(OC(F)(F)F)cn2)C[C@H](C)N1C(=O)OC1CC2(C1)CN(Cc1ccccc1)C2 [Compound 202, 2-benzyl-2-azaspiro[3.3]heptan-6-yl (2R,6S)-2,6-dimethyl-4-[5-(trifluoromethoxy)pyrazin-2-yl]piperazine-1-carboxylate] | < 10 | –
22 | C[C@@H]1CN(c2cnc(OC(F)(F)F)cn2)C[C@@H](C)N1C(=O)OC1CC2(C1)CN(Cc1ccccc1)C2 [Compound 203, 2-benzyl-2-azaspiro[3.3]heptan-6-yl (2R,6R)-2,6-dimethyl-4-[5-(trifluoromethoxy)pyrazin-2-yl]piperazine-1-carboxylate] | < 10 | –

Reference: US20230129359A1, “MUSCARINIC RECEPTOR 4 ANTAGONISTS AND METHODS OF USE” (Neurocrine Biosciences, Inc., priority 2020, published 2023)
